Laboratory results: patent US20020115212A1, “Enchanced PKR expression and cytokine production” (priority 2000, published 2002)

How the values were obtained:
[1] = test system: IFN-alpha production in Namalwa PKR++41.027 and WT Namalwa cells; test: IFN-alpha production (ELISA) after PMA priming and poly I:C induction; type: cell-based, human; settings: 20 nM PMA 24 hr, 200 μg/mL poly I:C plus 10 μg/mL DEAE Dextran, 72 hr
Experimental: Cells from individual subclones of Namalwa PKR++41.027 cells and WT Namalwa cells were pretreated with 20 nM phorbol myristate acetate at a cell density 5.0×10^5 cells/ml, in 6 well plates for 24 hrs followed by treatment with 500 HAU/ml Sendai virus or 200 μg/mL poly I:C plus 10 μg/mL DEAE Dextran for an additional 72 hr to induce IFN expression. Culture supernatants from the Sendai virus-treated cells were removed at 24 hr and 48 hr post-induction and supernatants from the Poly I:C treated cells were removed at 72 hr. IFN-alpha production was measured in these cell culture supernates using ELISA (Human Interferon Alpha Multi-Species ELISA Kit obtained from PBL).
FIG. 5 illustrates IFN-alpha production was enhanced following both Sendai virus and PolyI:C induction in Namalwa PKR++41.027 cells relative to IFN-alpha production by wild type Namalwa cells as shown in FIG. 5.

[2] = biological target: PKR (Homo sapiens, UniProt P19525); settings: stated as known; cited from earlier work
PKR, sequence (P19525 whole entry): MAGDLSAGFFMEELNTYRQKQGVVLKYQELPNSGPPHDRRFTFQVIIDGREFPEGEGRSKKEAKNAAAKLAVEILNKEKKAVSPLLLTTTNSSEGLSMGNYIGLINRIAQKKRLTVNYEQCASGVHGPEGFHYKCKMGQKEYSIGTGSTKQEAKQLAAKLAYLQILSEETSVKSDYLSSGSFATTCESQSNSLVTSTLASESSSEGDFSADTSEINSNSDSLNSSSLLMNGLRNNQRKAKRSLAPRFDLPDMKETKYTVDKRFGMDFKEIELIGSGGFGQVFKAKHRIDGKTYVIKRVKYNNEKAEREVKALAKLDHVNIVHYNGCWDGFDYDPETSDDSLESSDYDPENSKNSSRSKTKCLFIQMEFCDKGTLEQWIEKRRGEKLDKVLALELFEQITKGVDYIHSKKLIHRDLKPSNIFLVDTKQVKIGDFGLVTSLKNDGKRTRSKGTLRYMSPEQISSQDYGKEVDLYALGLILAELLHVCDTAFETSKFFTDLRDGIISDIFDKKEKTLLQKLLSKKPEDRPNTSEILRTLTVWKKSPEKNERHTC

[3] = test system: proinflammatory cytokines; test: Induction of other proinflammatory cytokines by virus or poly I:C in the presence of 2-aminopurine; type: cell-based; settings: results not shown
[4] = test system: IFN-alpha production in Namalwa PKR++41.027 and WT Namalwa cells; test: IFN-alpha production (ELISA) after PMA priming and Sendai virus or poly I:C induction in the presence of 2-aminopurine; type: cell-based, human; settings: 5 mM 2-aminopurine, 20 nM PMA 24 hr, Namalwa PKR++41.027 and WT cells
Experimental: Parallel experiments were performed on duplicate cultures of the individual subclones of Namalwa PKR++41.027 cells and WT Namalwa cells. These cultures were also pretreated with 20 nM phorbol myristate acetate at a cell density 5.0×10^5 cells/ml, in 6 well plates for 24 hr followed by treatment with 500 HAU/ml Sendai virus or poly I:C (200 μg/ml) plus 10 μg/ml DEAE Dextran. In addition these cultures were also treated with the PKR inhibitor 5 mM 2-aminopurine (2AP; obtained from Aldrich Chemical Company). Culture supernatants from the Sendai virus-induced cells were removed at 24 hr, post-induction and culture supernatants from the Poly I:C-induced cells were removed at 72 hr and evaluated for IFN alpha production using ELISA (PBL Catalogue No. 41105 Human Interferon Alpha Multi-Species ELISA Kit).

| Compound | IFN-alpha induction in Namalwa PKR++41.027 cells [1] | IFN-alpha induction in parental wild type Namalwa cells [1] | PKR kinase activity [2] | induction of other proinflammatory cytokines by virus or poly I:C [3] | IFN-alpha production following Sendai virus induction ([4]; 500 HAU/ml Sendai virus, supernatant at 24 hr) | IFN-alpha production following poly I:C induction ([4]; poly I:C 200 μg/ml plus 10 μg/ml DEAE Dextran, supernatant at 72 hr) |
| --- | --- | --- | --- | --- | --- | --- |
| poly I:C | capable of inducing IFN | absence of detectable IFN-alpha induction | – | – | – | – |
| Nc1ncc2[nH]cnc2n1 [2-aminopurine] | – | – | known inhibitor | inhibits | decreased | decreased |
